According to US7273723B2, “Antibiotic-based gene regulation system” (priority 2001, dated 2007):

Assays:
[1] = system: ET1 (MphR(A)-VP16) / PETR promoters; test: SEAP reporter assay, CHO lines stably expressing ET1 (CHO-ET11, CHO-ET12) transiently transfected with PETR-SEAP plasmids; assay type: cell-based; conditions: for SEAP production [%]: CHO-ET11 transiently transfected with pWW38, 48 h, antibiotic 2 μg/ml, no macrolide = 100
Protocol: (§1) Chinese hamster ovary cells (CHO-K1, ATCC: CCL 61), and HeLa cells (ATCC: CRL-7923) as well as stable cell lines derived thereof were cultured as described before (Fussenegger et al., 1998, Nat. Biotechnol. 16,468-472) in the presence of appropriate antibiotics: G418 400 μg/ml; zeocin 100 μg/ml. Optimized CaPO4 protocols were used for high efficiency transient transfection of all cell lines (Fussenegger et al., 1998. Nat. Biotechnol. 16: 468-472). Transiently transfected cells were routinely analyzed after 48 h for CFP or SEAP expression using fluorescence microscopy and p-nitrophenolphosphate-based light absorbance timecourse, respectively, as described before (Fussenegger et al., 1998, Nat. Biotechnol. 16, 468-472; Berger et al., 1988, Gene 66, 1-10 b). For construction of stable CHO-ET1 and CHO-Triplet42 cell lines, CHO-Ki and CHO-TWIN1108 (Disclosed in PCT application no. 00/65080) were cotransfected with pWW35 and pZeoSV2 (invitrogen). CHO-ET11-SEAP was constructed by cotransfection of pWW38 and pSV2neo (Clontech) into CHO-ET11. The mixed populations were cloned using FACS-mediated single-cell-sorting (FACStar^Plus; Beckton Dickinson). For assessment of dose-response characteristics of PETR3-regulated gene expression, CHO-ET11-SEAP were cultured at cell densities of 50,000/ml for 48 h at various EM concentrations.
(§2) Other antibiotics were eluted from antibiotic test discs (Mast Diagnostica GmbH, Reinfeld, Germany, or bioMérieux, Geneva Switzerland) in cell culture medium at 37° C. for 12 h to reach a final concentration of 30 μg/ml. All macrolide antibiotics were used at a 2 μg/ml concentration unless indicated otherwise.
Two representative clones, CHO-ET11 and CHO-ET12, were chosen at random among ET1-expressing CHO cell clones stably transfected with a constitutive ET1 expression construct (pWW35).
Access to alternative effective antibiotics would expand the spectrum of regulating agents available for future use in human cell and gene therapy. Accordingly, several commercially available antibiotic sources were tested for their potential to regulate the ET1/PETR3 system as shown below in Table 3.
The effect of the different spacer length in promoters PETR2 and PETR7-PETR11 were examined by transfecting the corresponding plasmids (pWW37, pBP10-pBP14) into a CHO cell line stably transfected with the transactivator ET1 (MphR(A)-VP 16, see example 1).

[2] = saliva, sputum, lung tissue, epithelial lining fluid, alveolar macrophages, neutrophils, tonsils, nasal mucosa, middle ear fluid; cited from earlier work
[3] = system: PIT / pristinamycin-responsive promoter PPIR; test: SEAP assay in CHO-Triplet42 transfected with PPIR-SEAP (pMF172); assay type: cell-based; conditions: for SEAP activity [U/L]: CHO-Triplet42 + pMF172 (PPIR), antibiotic 2 μg/ml, 48 h
Protocol: as §1, §2
(§3) The regulation performance of the EM-based regulation system was compared directly with the widely used TET- and PIP responsive expression concepts. To this end, we have constructed a stable CHO-K1-derived cell line expressing ET1, PIT and tTA (CHO-Triplet42). […] CHO-Triplet42 was transfected with either isogenic (i) PETR3-(pWW38), (ii) a PPIR-(pristinamycin-responsive promoter, pMF172, Fussenegger et al., 2000. supra.), or (iii) a PhCMV*-1-(tetracycline-responsive promoter, pMF111, Fussenegger et al., 2000. supra) driven SEAP expression vector to assess the individual regulation performance of the three antibiotic-responsive gene regulation systems in CHO cells (Table 5).
(§4) To analyze the relative regulatory characteristics, we evaluated induction factors (IF; ratio of maximal expression level to antibiotic-repressed expression level).
(§5) These repressive effects are still in a range which is tolerable for use in potential medical applications.

[4] = molecular target: T1, tTA / tetracycline-responsive promoter PhCMV*-1 (Escherichia coli, UniProt P04483); test: SEAP assay in CHO-Triplet42 transfected with PhCMV*-1-SEAP (pMF111); assay type: cell-based; conditions: antibiotic 2 μg/ml
T1 construct: expressed in transfected cells; host or cells: CHO-Triplet42 (from CHO-TWIN1108)
Protocol: as §1, §2

[5] = system: ET1 / erythromycin-responsive promoter PETR3; test: SEAP assay in CHO-Triplet42 transfected with PETR3-SEAP (pWW38); assay type: cell-based; conditions: antibiotic 2 μg/ml; for SEAP activity [U/L]: CHO-Triplet42 + PWW38 (PETR3), 48 h
Protocol: as §1, §2, §3, §4, §5

CC[C@H]1OC(=O)[C@H](C)[C@@H](O[C@H]2C[C@@](C)(OC)[C@@H](O)[C@H](C)O2)[C@H](C)[C@@H](O[C@@H]2O[C@H](C)C[C@H](N(C)C)[C@H]2O)[C@](C)(OC)C[C@@H](C)C(=O)[C@H](C)[C@@H](O)[C@]1(C)O [Clarithromycin]
Induction factor (ratio of SEAP activity without antibiotic to SEAP activity with antibiotic) ([1]; CHO-ET11 + pWW38, 2 μg/ml): 23
SEAP production [%] [1]: 4.3 ± 0.3%
diffusion into tissues and fluids [2]: extensive diffusion

pristinamycin I [PI]
SEAP activity [U/L] [3]: 2.2 ± 0.1 U/L
Induction factor ([3]; Pip-system in CHO-Triplet42): three-fold
SEAP activity [U/L] ([4]; CHO-Triplet42 + pMF111 (PhCMV*-1), 48 h): 87.9 ± 7.0 U/L
Antibiotic crossregulation of PhCMV*-1 ([4]; CHO-Triplet42 + pMF111): no significant interference
SEAP activity [U/L] [5]: 71.9 ± 7.0 U/L
Antibiotic crossregulation of PETR3 ([5]; CHO-Triplet42 + pWW38): no significant interference

CC[C@H]1OC(=O)C[C@@H](O)[C@H](C)[C@@H](O[C@@H]2O[C@H](C)[C@@H](O[C@H]3C[C@@](C)(O)[C@@H](O)[C@H](C)O3)[C@H](N(C)C)[C@H]2O)[C@@H](CC=O)C[C@@H](C)C(=O)/C=C/C(C)=C/[C@@H]1CO[C@@H]1O[C@H](C)[C@@H](O)[C@@H](OC)[C@H]1OC [Tylosin]
SEAP production [%] [1]: 30.9 ± 3.2%

CC[C@H]1OC(=O)[C@H](C)[C@@H](O[C@H]2C[C@@](C)(OC)[C@@H](O)[C@H](C)O2)[C@H](C)[C@@H](O[C@@H]2O[C@H](C)C[C@H](N(C)C)[C@H]2O)[C@](C)(O)C[C@@H](C)/C(=N\OCOCCOC)[C@H](C)[C@@H](O)[C@]1(C)O [Roxithromycin]
SEAP production [%] [1]: 18.1 ± 0.9%

CN(C)[C@@H]1C(O)=C(C(N)=O)C(=O)[C@@]2(O)C(O)=C3C(=O)c4c(O)cccc4[C@@](C)(O)[C@H]3C[C@@H]12 [Tet, tetracycline]
SEAP activity [U/L] [3]: 4.6 ± 0.4 U/L
SEAP activity [U/L] [5]: 55.0 ± 8.3 U/L

CC[C@H]1OC(=O)[C@H](C)[C@@H](O[C@H]2C[C@@](C)(OC)[C@@H](O)[C@H](C)O2)[C@H](C)[C@@H](O[C@@H]2O[C@H](C)C[C@H](N(C)C)[C@H]2O)[C@](C)(O)C[C@@H](C)CN(C)[C@H](C)[C@@H](O)[C@]1(C)O [Azithromycin]
SEAP production [%] [1]: 57.6 ± 4.4%

CO/N=C(\C(=O)N[C@@H]1C(=O)N2C(C(=O)O)=C(CSc3nc(=O)c(=O)[nH]n3C)CS[C@H]12)c1csc(N)n1 [Ceftriaxone]
SEAP production [%] [1]: 28.8 ± 1.8%
